{"source": "patent US20200032249A1", "about": "“LABELING, ISOLATION, & ANALYSIS OF RNA FROM RARE CELL POPULATIONS” (priority 2017, published 2020)", "system": "293T cells expressing CD", "experiment": "immunopurification of labeled mRNAs with anti-BrdU antibody and RT-PCR, CD-expressing 293T cells", "assay_type": "cell-based, human", "procedure": "FIG. 1a-f. Labeling and purification of RNA by CD expression and 5-FC treatment. FIG. 1a—Schematic diagram showing RNA labeling using CD and 5-FC. FIG. 1b—Chemical reactions steps involved in the labeling of RNA using CD and 5-FC. The dotted arrow indicates the intermediary steps that are not shown. FIG. 1c Relative fold enrichment of mRNA isolated by Flura-tagging. 293T cells expressing CD or unlabeled controls were treated with 5-FC for the indicated times, labeled mRNAs were immunopurified using anti-BrdU antibody, and the levels of labeled mRNAs of the indicated genes relative to corresponding non-immunoprecipitated inputs normalized to immunopurified mRNAs from cells not expressing CD were quantified by RT-PCR. […] FIG. 1d—Schematic diagram of the constructs used for inducible expression of UPRT and/or CD, and the experimental design. Transduced RFP+MDA231 cells were mixed with unlabeled cells, treated with doxycycline for 24 h and then 5-FC for 4-12 h. Cells were analyzed by immunofluorescence or harvested for RNA analysis. FIG. 1e—Flura-tagging in MDA231 cells in vitro. […] The fold enrichment of the indicated representative human genes over mouse housekeeping genes (mHPRT1 and mLDH1) was measured by RT-PCR (n=3±S.E.). […]\nNext, we determined whether 5-FU-labeled mRNAs can be specifically and efficiently isolated by immunoprecipitation. […]", "data": [{"smiles": "Nc1nc(=O)[nH]cc1F", "note": "[5-FC, 5-fluorocytosine]", "values": [{"measurement": "time for which labeling continued to increase", "result": "up to 24 h"}, {"measurement": "time after treatment at which labeled mRNAs were detectable", "setting": "three representative genes", "result": 2, "unit": "h"}]}]}
